Source: patent US10485874B2, “Hyaluronic acid modified by sphingosine-1-phosphoric acid” (priority 2014, dated 2019)

Assays:
serum ALT = experiment: Rat total liver ischemia/reperfusion model: serum ALT (liver function); assay type: in vivo, Sprague-Dawley rats; conditions: 100 μg/kg in terms of S1P via tail vein 10 min before 20 min total liver ischemia
Description: (§1) Male Sprague-Dawley (hereinbelow, SD) rats, 200 to 250 g, were obtained from CLEA Japan, Inc. (Tokyo, Japan). Four groups of SD rats were studied.
(§2) A study was conducted for a methanol-administration group, where methanol was the solvent for S1P (the content of administration:methanol (50 μl)+3% BSA (150 μl), 200 μl in total), a HA-administration group (the content of administration: 8 kDa HA dissolved in methanol:ultrapure water=1:3 at 0.32564 g/l, 200 μl in total), an S1P-administration group (the content of administration: 100 μg/kg in terms of the dose of S1P, S1P (50 μl)+3% BSA (150 μl), 200 μl in total), a HA-S1P-administration group (the content of administration: 100 μg/kg in terms of the dose of S1P, the HA-S1P formulation prepared at Hokkaido University was dissolved in methanol:ultrapure water=1:3 at 0.358 g/l, 200 μl in total).
Each agent was injected into the tail vein of rats. Ten minutes after the injection, the hepatic artery, portal vein, and bile duct were occluded at once with microclips for 20 minutes. Upon completion of 20 minutes of total liver ischemia, the occlusion was released. For pathological examination, liver tissues were removed from 10 to 15 rats in each group 120 minutes after reperfusion. Also, blood was collected immediately before the injection of the agents and 30 minutes, 60 minutes, and 120 minutes after reperfusion.
In order to evaluate the injury of liver parenchyma, the serum ALT value was measured with an autoanalyzer (FUJI DRI-CHEM 7000V, Fujifilm, Tokyo, Japan).
Statistical analysis was conducted using the Kruskal Wallis H-test and the Mann-Whitney U test with Bonferroni correction as a post hoc test. Also, p< 0.05 was accepted to be indicative of statistical significance.
Using 200 to 250 g SD rats, four experimental groups (A) to (D) were prepared. […]

TUNEL-positive cells = experiment: Rat liver ischemia/reperfusion model: TUNEL staining of liver (apoptosis-positive cells); assay type: in vivo, Sprague-Dawley rats
Description: as §1, §2
Each agent was injected into the tail vein of rats. Ten minutes after the injection, the hepatic artery, portal vein, and bile duct were occluded at once with microclips for 20 minutes. […]
Using DeadEnd® Colorimetric TUNEL System (G7360) supplied by Promega KK, apoptosis-positive cells were immunohistochemically detected. The tissue sections of each group were evaluated. The number of TUNEL-positive cells and the total number of hepatocytes were counted in 10 randomly selected high-power fields (400×) focusing on the portal vein. […]

HO-1 = experiment: Rat liver ischemia/reperfusion model: Western blot of HO-1 in liver tissue; assay type: in vivo, Sprague-Dawley rats; conditions: liver tissue 120 minutes after reperfusion
Description: as §1, §2
(§3) Each agent was injected into the tail vein of rats. Ten minutes after the injection, the hepatic artery, portal vein, and bile duct were occluded at once with microclips for 20 minutes. Upon completion of 20 minutes of total liver ischemia, the occlusion was released. For pathological examination, liver tissues were removed from 10 to 15 rats in each group 120 minutes after reperfusion. Also, blood was collected immediately before the injection of the agents and 30 minutes, 60 minutes, and 120 minutes after reperfusion. […]

cleaved caspase 3 = experiment: Rat liver ischemia/reperfusion model: Western blot of cleaved caspase 3 in liver tissue; assay type: in vivo, Sprague-Dawley rats; conditions: liver tissue 120 minutes after reperfusion
Description: as §1, §2, §3

[1] = Accumulation of S1P in the liver by Western blot; assay type: in vivo, rat; conditions: Western blot with anti-S1P antibody; versus the S1P only sample
Description: The expression of S1P in the liver tissues was confirmed by Western blot in accordance with the following method.
The rat liver tissues stored at −80° C. were homogenized in a buffer prepared from various reagents (150 mmol/L NaCl, 50 mM Tris-Cl, 1% NP-40, and a protease inhibitor). The resulting samples were centrifuged and the supernatants were collected for analysis. The samples thus obtained were separated using 10% SDS-PAGE gel and transferred to nitrocellulose membranes (Millipore, Bedford, Mass.). As the primary antibody, Anti-S1P antibody (ab140592) (1:1000, rabbit polyclonal, Abcam, Cambridge, UK) was used. As the secondary antibody, Anti-rabbit IgG, HRP-linked antibody (#7074S) (1:1000, Cell Signalling Technology, Beverley, Mass., USA) was used.

sinusoid structure = experiment: Rat liver ischemia/reperfusion model: HE staining, pathological evaluation of liver; assay type: in vivo, Sprague-Dawley rats; conditions: liver tissue 120 minutes after reperfusion; 200× field
Description: as §1, §2
Each agent was injected into the tail vein of rats. Ten minutes after the injection, the hepatic artery, portal vein, and bile duct were occluded at once with microclips for 20 minutes. Upon completion of 20 minutes of total liver ischemia, the occlusion was released. […]
The liver tissues were fixed in 10% buffered formalin, and then embedded in paraffin, followed by staining with hematoxylin and eosin. The tissue sections of each group were evaluated. […]

[2] = system: liver sinusoidal endothelial cells; experiment: Rat liver ischemia/reperfusion model: electron microscopic evaluation of the microstructure of liver; assay type: in vivo, Sprague-Dawley rats; conditions: liver excised 120 minutes after reperfusion
Description: as §1, §2
as §3, with “reperfusion.” for “reperfusion. Also, blood was collected immediately before the injection of the agents and 30 minutes, 60 minutes, and 120 minutes after reperfusion.”
The liver sinusoidal endothelial cells after ischemia/reperfusion were evaluated with an electron microscopy. […]

Substance: hyaluronic acid modified with sphingosine-1-phosphate [HA-S1P]
- serum ALT value (serum ALT; 30 minutes after reperfusion, versus vehicle and S1P groups): significantly lower
- serum ALT value (serum ALT; 60 minutes after reperfusion, versus vehicle, HA and S1P groups): significantly lower
- serum ALT value (serum ALT; 120 minutes after reperfusion, versus HA group): significantly lower
- percentage of TUNEL-positive cells (TUNEL-positive cells/total number of hepatocytes) (TUNEL-positive cells; 400× fields centering around Zone 1, 10 fields per sample, 120 minutes after reperfusion): significantly low
- TUNEL staining, positive cells (TUNEL-positive cells; liver tissue 120 minutes after reperfusion): positive cells were almost unobserved
- expression of HO-1 (HO-1): increased
- expression of the apoptosis-related protein cleaved caspase 3 (cleaved caspase 3): inhibited
- expression of S1P in the liver tissues [1]: higher
- sinusoid structure (HE staining) (sinusoid structure): sinusoid structure was maintained
- microstructure of LSECs (electron microscopic images) [2]: undercoat structure of LSECs was maintained
